Patent EP1149096B1, “TRICYCLIC PYRIDINE N-OXIDES VASOPRESSIN AGONISTS” (Wyeth, priority 1999, dated 2000)

System: Vasopressin V2
Assay: Vasopressin V2 agonist effects in normal conscious water-loaded rats
Type: in vivo
Details: oral dose of 10 mg/kg, urine collected for four hours after dosing, Sprague-Dawley (CD) rats, water-loaded 30 ml/kg; for Changes in Urinary Osmolality: Percent changes in osmolality vs. control; for Urine Volume (% decrease): Percent decrease in urine volume vs. control
Excerpt: Vasopressin V2 Agonist Effects of Test Compounds in Normal Conscious Water-Loaded Rats:
Male or female normotensive Sprague-Dawley rats (Charles River Laboratories, Inc., Kingston, NY) of 350-500 g body weight were supplied with standard rodent diet (Purina Rodent Lab. Chow 5001) and water ad libitum. On the day of test, rats were placed individually into metabolic cages equipped with devices to separate the feces from the urine and containers for collection of urine. A test compound or a reference agent was given at an oral dose of 10 mg/kg in a volume of 10 ml/kg. The vehicle used was 20% dimethylsulfoxide (DMSO) in 2.5% preboiled corn starch. Thirty minutes after dosing the test compound, rats were gavaged with water at 30 ml/kg into the stomach using a feeding needle. During the test, rats were not provided with water or food. Urine was collected for four hours after dosing of the test compound. At the end of four hours, urine volume was measured. Urinary osmolality was determined using a Fiske One-Ten Osmometer (Fiske Associates, Norwood, MA, 02062) or an Advanced CRYOMATIC Osmometer, Model 3C2 (Advanced Instruments, Norwood, MA). Determinations of Na^+, K^+ and Cl^- ion were carried out using ion specific electrodes in a Beckman SYNCHRON EL-ISE Electrolyte System analyzer. The urinary osmolality should increase proportionally. In the screening test, two rats were used for each compound. If the difference in the urine volume of the two rats was greater than 50%, a third rat was used.

Structure (SMILES) | Changes in Urinary Osmolality [%] | Urine Volume (% decrease) [%]
Cc1ccn(-c2ccc(C(=O)N3Cc4ccc[n+]([O-])c4Nc4ccccc43)c(Br)c2)n1 [Example 3, [2-Bromo-4-(3-methyl-1H-pyrazol-1-yl)-phenyl]-(6,11-dihydro-5H-pyrido [2,3-b][1,5]benzodiazepin-6-yl)-methanone-1-oxide] | 747 | 90
Cc1ccn(-c2ccc(C(=O)N3Cc4ccc[n+]([O-])c4Nc4ccccc43)c(C(F)(F)F)c2)n1 [Example 4, 4-[(3-Methyl-1H-pyrazol-1-yl)-2-(trifluoromethyl)-phenyl]-(6,11-dihydro-5H-pyrido[2,3-b][1,5]benzodiazepin-6-yl)-methanone 1-oxide] | 331 | 72
Cc1ccn(-c2ccc(C(=O)N3Cc4ccc[n+]([O-])c4Nc4ccccc43)c(Cl)c2)n1 [Example 1, [2-Chloro-4-(3-methyl-1H-pyrazol-1-yl)-phenyl]-(6,11-dihydro-5H-pyrido[2,3-b][1,5]benzodiazepin-6-yl)-methanone-1-oxide] | 753 | 80
